Laboratory results reported in patent US11498909B2, “Compound acting as antibiotics” (KBP BIOSCIENCES CO., LTD., priority 2018, dated 2022).
Values after ≈ are worked out from the molar mass of the structure shown.

Legend:
Klebsiella pneumoniae = assay: In vitro antibacterial activity, agar dilution MIC (Experiment 1); assay type: cell-based; details: agar dilution
How it was run: (§1)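 MIC is the minimum inhibitory concentration, determined by agar dilution per the NCCLS M7-A7 standard. Strains tested were E. coli ATCC25922, P. aeruginosa ATCC27853 and K. pneumoniae ATCC700603.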

Escherichia coli = assay: as above; assay type: cell-based
How it was run: as §1

Pseudomonas aeruginosa [1] = assay: as above; assay type: cell-based; details: agar dilution (Table 3)
How it was run: as §1

Pseudomonas aeruginosa [2] = assay: In vitro antibacterial activity against Pseudomonas aeruginosa, agar dilution MIC (Experiment 3); assay type: cell-based; details: CLSI 2018 (Table 5)
Method: Tested samples: the compound of the present invention, prepared according to the preparation example method; Compound C, prepared with reference to WO2008154642A2.
With reference to the steps of the agar dilution method in the 2018 USA Clinical and Laboratory Standards Institute (CLSI), the determination of the minimum inhibitory concentration (MIC) of the compounds against the strain(s) was carried out.
Preparation of drug-containing plate: (1) a drug solution with the highest concentration was prepared, and the highest concentration of each compound was 160 μg/mL. (2) For each compound, the drug solution with the highest concentration was subjected to the double dilution, and a total of 10 concentration gradients was obtained; for each of dilution gradient, 2 mL of the drug solution was added to 18 mL MH agar solution which had been autoclaved at 121° C. and cooled to about 50° C.; the mixture was uniformly mixed, left stand and cooled to give a drug-containing plate; and the plate was labeled. The final concentrations of the compound were respectively 16, 8, 4, 2, 1, 0.5, 0.25, 0.125, 0.06 and 0.03 μg/mL.
Inoculum preparation and inoculation: A fresh single colony was selected, diluted with 0.9% sodium chloride injection, adjusted to 0.5 #McFarland turbidity, and then diluted 10 times with 0.9% sodium chloride injection, then inoculated with an automatic multi-point inoculation instrument to the labeled drug-containing plate.

[3] = Pharmacokinetics (PK) determination in SD rats (Experiment 4); assay type: in vivo; details: plasma, 2 mg/kg
How it was run: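 SD rats; caudal-vein blood on heparin, plasma stored at −80 °C. Plasma protein-precipitated with internal standard, diluted with water and quantified by LC-MS/MS on C18 column; PK parameters by noncompartmental-software analysis.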

[4] = tested on: polymyxin-resistant mcr-1 positive Enterobacteriaceae; assay: In vitro antibacterial effect on polymyxin-resistant mcr-1 positive Enterobacteriaceae, agar dilution MIC (Experiment 2); assay type: cell-based, Escherichia coli
Method: Tested samples: the compounds of the present invention, prepared according to the methods of the preparation examples;
Polymyxin E sulphate, Ampicillin, Cefotaxime, Gentamicin, Ciprofloxacin, Tetracycline, and Bactrim were all commercial products, the following experiments were carried out according to the content of an effective ingredient in each commercial product.
Tested strains: Escherichia coli carrying mcr-1 gene isolated from animals and Escherichia coli ATCC25922, a quality control strain, were provided by South China Agricultural University.
With reference to the agar dilution method in CLSI, the MIC value of the tested drugs to the polymyxin resistant mcr-1 positive Escherichia coli were determined.
Preparation of drug-containing agar plates: a drug solution with the highest concentration was prepared for each compound; the drug solution with the highest concentration was subjected to the double dilution; for each of dilution gradient, 1 mL (20×drug working solution) of the drug solution was added to 19 mL MH agar at 45-50° C.; immediately after addition, the agar and the drug solution were uniformly mixed to give a drug-containing agar plate with final concentrations of […], and the plate was solidified for later use; and in the meanwhile, a growth control group was arranged.
Inoculum preparation and culture: the strains stored at −80° C. were rejuvenated and formulated with broth so that the turbidity reached or exceeded 0.5 #McFarland unit; a 96-well plate was used as the inoculation tank, and the bacterial solution was diluted with sodium chloride injection so that the content of bacteria inoculated on the agar was 10^4 CFU/point. A multi-point inoculation instrument was used to inoculate the bacterial solution to the surface of the labeled drug-containing agar. After the water in the inoculation point was completely absorbed by the agar, the plate was placed upside down in a 37° C. constant-temperature incubator and incubated for 16-20 hours.

In the case of `CC(O)[C@H](NC(=O)c1ccc(C#CC#Cc2ccc(CO)o2)cc1)C(=O)NO` (stereo in doubt) [Compound 6, N-((2S,3R)-3-hydroxy-1-(hydroxyamino)-1-oxobutan-2-yl)-4-((5-(hydroxymethyl)furan-2-yl)buta-1,3-diynyl)benzamide], the MIC50 (Klebsiella pneumoniae; read-out: MIC50) is reported as 1 µg/mL (≈ 2.62 µM), the MIC90 (Klebsiella pneumoniae; read-out: MIC90) is reported as 1 µg/mL (≈ 2.62 µM) and the MIC50 (Escherichia coli) is reported as 0.125 µg/mL (≈ 0.327 µM). For the same compound, the MIC90 (Escherichia coli) was 0.125 µg/mL (≈ 0.327 µM), the MIC50 (Pseudomonas aeruginosa [1]; read-out: MIC50) was 0.25 µg/mL (≈ 0.654 µM) and the MIC90 (Pseudomonas aeruginosa [1]; read-out: MIC90) was 1 µg/mL (≈ 2.62 µM). For the same compound, the MIC50 (Pseudomonas aeruginosa [2]) was 0.5 µg/mL (≈ 1.31 µM), the MIC90 (Pseudomonas aeruginosa [2]; read-out: MIC90) was 1 µg/mL (≈ 2.62 µM) and the Cl_obs ([3]; IV 2 mg/kg) was 8.33 ± 1 mL/min/kg. The Vz_obs ([3]; IV 2 mg/kg) was 0.46 ± 0.14 L/kg, the t1/2z ([3]; IV 2 mg/kg) was 37.2 ± 7.2 min and the λ_z ([3]; IV 2 mg/kg) was 1.14 ± 0.21 h⁻¹. The AUC(0-t) ([3]; Sprague-Dawley (SD), rat, iv) was 4000 ± 442 ng·h/mL, the AUC(0-inf) ([3]; Sprague-Dawley (SD), rat, iv, read-out: AUCINF_obs) was 4010 ± 443 ng·h/mL and the MIC90 ([4]; Escherichia coli, read-out: MIC90 Value, polymyxin-resistant mcr-1 positive Escherichia coli, agar dilution) was 1 µg/mL (≈ 2.62 µM). The “MIC90 Value” ([4]; polymyxin-resistant mcr-1 positive Escherichia coli, agar dilution) was 0.5 µg/mL (≈ 1.31 µM).
